Source: ChEMBL document CHEMBL6182898, “Design, synthesis and bioevaluation of novel hydrazide derivatives as enhancers of immunotherapy and DNA-damage response in antitumor therapy” (Eur J Med Chem, 2025)
Active and inactive are the calls of the source. No cut-off for these calls is given here.

Experiments:
B16-F10 [1] = assay: Induction of antitumor immunity in mouse B16-F10 cells implanted in male C57BL/6J mouse assessed as CD3+CD4+ T cell infiltration at 50 mg/kg, IG treated for 14 days consecutively by flow cytometry (reference value: 7.4 %); type: functional; conditions: time 14 day
[2] = Half life in male Sprague-Dawley rat at 20 mg/kg, po measured for 0.083 to 12 hrs by LC-MS/MS analysis; type: ADME, organism-based; conditions: in vivo, time 0.083-12 hrs
[3] = Half life in male Sprague-Dawley rat at 2 mg/kg, iv measured for 0.083 to 12 hrs by LC-MS/MS analysis; type: ADME, organism-based; conditions: in vivo, time 0.083-12 hrs
B16-F10 [4] = assay: Antitumor activity against mouse B16-F10 cells implanted in male C57BL/6J mouse at 50 mg/kg, IG treated for 14 days consecutively relative to control; type: functional; conditions: B16-F10, po, 336 h, time 14 day, read-out: TGI
[5] = Toxicity in male C57BL/6J mouse implanted with mouse B16-F10 cells assessed as histopathological damage in heart at 50 mg/kg, IG treated for 14 days consecutively by H and E staining based analysis; type: organism-based; conditions: in vivo, po, 336 h, time 14 day
4T1 [6] = assay: Synergistic induction of DNA damage in mouse 4T1 cells implanted in mouse assessed as decrease in PARP level at 25 mg/kg/day in presence of olaparib by immunofluorescence based analysis; type: functional, organism-based
B16-F10 [7] = assay: Induction of antitumor immunity in mouse B16-F10 cells implanted in male C57BL/6J mouse assessed as CD3+CD4+ T cell infiltration at 25 mg/kg, IG treated for 14 days consecutively in presence of NP-19 by flow cytometry (reference value: 7.4 %); type: functional; conditions: time 14 day
4T1 [8] = assay: Synergistic induction of DNA damage in mouse 4T1 cells implanted in mouse assessed as increase in gamma-H2AX level at 25 mg/kg/day in presence of olaparib by IHC analysis; type: functional, organism-based
[9] = VRT (0 to t) in male Sprague-Dawley rat at 20 mg/kg, po measured for 0.083 to 12 hrs by LC-MS/MS analysis; type: ADME, organism-based; conditions: in vivo, time 0.083-12 hrs
B16-F10 [10] = assay: Induction of antitumor immunity in mouse B16-F10 cells implanted in male C57BL/6J mouse assessed as increase in T cell infiltration at 50 mg/kg, IG treated for 14 days consecutively by immunofluorescence based analysis; type: functional, organism-based; conditions: time 14.0 day
[11] = biological target: Programmed cell death 1 ligand 1 (Mus musculus) (UniProt Q9EP73); assay: Induction of PD-L1 degradation in mouse B16-F10 cells at 5 uM incubated for 24 hrs in presence of MG-132 by Western blot analysis; type: cell-based
Chain of Programmed cell death 1 ligand 1 (Mus musculus) (Q9EP73 whole entry): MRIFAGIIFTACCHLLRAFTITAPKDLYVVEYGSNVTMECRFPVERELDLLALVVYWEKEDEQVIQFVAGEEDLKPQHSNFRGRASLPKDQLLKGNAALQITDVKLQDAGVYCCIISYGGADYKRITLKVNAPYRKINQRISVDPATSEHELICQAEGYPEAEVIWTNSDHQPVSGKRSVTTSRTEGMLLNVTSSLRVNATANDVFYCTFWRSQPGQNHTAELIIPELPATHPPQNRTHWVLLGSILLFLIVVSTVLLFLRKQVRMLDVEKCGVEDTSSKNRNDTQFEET

4T1 [12] = assay: Synergistic induction of DNA damage in mouse 4T1 cells implanted in mouse assessed as increase in gamma-H2AX level at 25 mg/kg/day in presence of olaparib by immunofluorescence based analysis; type: functional, organism-based
[13] = biological target: T1, Histone deacetylase 3 (Mus musculus) (UniProt O88895); assay: In vivo inhibition of HDAC3 in mouse B16-F10 cells implanted in male C57BL/6J mouse assessed as increase in Ac-H3 level at 25 mg/kg, IG treated for 14 days consecutively in presence of NP-19 by immunofluorescence based analysis; type: functional, organism-based; conditions: time 14.0 day
T1 sequence (whole entry): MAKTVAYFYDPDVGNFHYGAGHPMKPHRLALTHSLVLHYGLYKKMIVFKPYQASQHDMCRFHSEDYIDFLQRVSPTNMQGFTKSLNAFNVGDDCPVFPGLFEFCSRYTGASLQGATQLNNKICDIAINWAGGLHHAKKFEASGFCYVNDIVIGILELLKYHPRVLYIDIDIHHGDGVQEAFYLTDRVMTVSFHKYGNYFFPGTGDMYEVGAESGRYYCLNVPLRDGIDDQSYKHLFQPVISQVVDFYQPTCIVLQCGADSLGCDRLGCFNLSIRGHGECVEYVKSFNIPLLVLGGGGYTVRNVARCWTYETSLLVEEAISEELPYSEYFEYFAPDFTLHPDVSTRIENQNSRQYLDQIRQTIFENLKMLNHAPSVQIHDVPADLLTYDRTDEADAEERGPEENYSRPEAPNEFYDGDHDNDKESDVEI

[14] = VRT (0 to infinity) in male Sprague-Dawley rat at 2 mg/kg, iv measured for 0.083 to 12 hrs by LC-MS/MS analysis; type: ADME, organism-based; conditions: in vivo, time 0.083-12 hrs
[15] = biological target: Programmed cell death 1 ligand 1 (Mus musculus, UniProt Q9EP73); assay: Induction of PD-L1 degradation in mouse B16-F10 cells incubated for 24 hrs by Western blot analysis; type: cell-based
Chain of Programmed cell death 1 ligand 1 (Q9EP73 whole entry): as the sequence (Q9EP73 whole entry) above

[16] = MRT (0 to t) in male Sprague-Dawley rat at 2 mg/kg, iv measured for 0.083 to 12 hrs by LC-MS/MS analysis; type: ADME, organism-based; conditions: in vivo, time 0.083-12 hrs
[17] = AUC (0 to infinity) in male Sprague-Dawley rat at 2 mg/kg, iv measured for 0.083 to 12 hrs by LC-MS/MS analysis; type: ADME, organism-based; conditions: in vivo, time 0.083-12 hrs
[18] = Tmax in male Sprague-Dawley rat at 2 mg/kg, iv measured for 0.083 to 12 hrs by LC-MS/MS analysis; type: ADME, organism-based; conditions: in vivo, time 0.083-12 hrs
[19] = AUMC (0 to t) in male Sprague-Dawley rat at 2 mg/kg, iv measured for 0.083 to 12 hrs by LC-MS/MS analysis; type: ADME, organism-based; conditions: in vivo, time 0.083-12 hrs
[20] = Apparent volume of distribution in male Sprague-Dawley rat at 20 mg/kg, po measured for 0.083 to 12 hrs by LC-MS/MS analysis; type: ADME, organism-based; conditions: in vivo, time 0.083-12 hrs
[21] = Toxicity in male C57BL/6J mouse implanted with mouse B16-F10 cells assessed as histopathological damage in kidney at 25 mg/kg, IG treated for 14 days consecutively in presence of NP-19 by H and E staining based analysis; type: organism-based; conditions: in vivo, po, 336 h, time 14 day
[22] = biological target: T1, Histone deacetylase 3 (Mus musculus); assay: In vivo inhibition of HDAC3 in mouse B16-F10 cells implanted in male C57BL/6J mouse assessed as decrease in PD-L1 level at 50 mg/kg, IG treated for 14 days consecutively by immunofluorescence based analysis; type: functional, organism-based; conditions: time 14.0 day
4T1 [23] = assay: Induction of DNA damage in mouse 4T1 cells implanted in mouse assessed as decrease in PARP level at 50 mg/kg/day by immunofluorescence based analysis; type: functional, organism-based
4T1 [24] = assay: Synergistic induction of DNA damage in mouse 4T1 cells implanted in mouse assessed as decrease in PARP level at 25 mg/kg/day in presence of olaparib by IHC analysis; type: functional, organism-based
[25] = biological target: T1, Histone deacetylase 3 (Mus musculus); assay: In vivo inhibition of HDAC3 in mouse B16-F10 cells implanted in male C57BL/6J mouse assessed as increase in Ac-H3 level at 50 mg/kg, IG treated for 14 days consecutively by Western blot analysis; type: functional, organism-based; conditions: time 14.0 day
[26] = AUC (0 to t) in male Sprague-Dawley rat at 2 mg/kg, iv measured for 0.083 to 12 hrs by LC-MS/MS analysis; type: ADME, organism-based; conditions: in vivo, time 0.083-12 hrs
[27] = Tmax in male Sprague-Dawley rat at 20 mg/kg, po measured for 0.083 to 12 hrs by LC-MS/MS analysis; type: ADME, organism-based; conditions: in vivo, time 0.083-12 hrs
4T1 [28] = assay: Synergistic induction of DNA damage in mouse 4T1 cells assessed as decrease in PARP1 level at 1 uM incubated for 24 hrs in presence of Olaparib by Western blot analysis; type: functional, cell-based

CCCNNC(=O)CCCCCCNC(=O)c1cnc(-c2ccc(NC(=O)OC(C)(C)C)cc2)s1
Activity (B16-F10 [1]): 12% | half-life [2]: 170 min | half-life [3]: 133 min | inhibition in vivo at 50 mg/kg (B16-F10 [4]): 59% | Activity [5]: Non-toxic | Activity (4T1 [6]): Active | Activity (B16-F10 [7]): 28% | Activity (4T1 [8]): Active | VRT(t) [9]: 6.38 h² | Activity (B16-F10 [10]): Active | Activity [11]: Active | Activity (4T1 [12]): Active | inhibition [13]: Active | VRT [14]: 0.98 h² | DC50 [15]: 4.17 µM | MRT last [16]: 20.4 min | AUC(0-inf) [17]: 658 ng·h/mL | Tmax [18]: 4.8 min | AUMCt [19]: 223.08 hr.hr.ug/L | Vz [20]: 2785.62 L/kg | Activity [21]: Non-toxic | inhibition [22]: Active | Activity (4T1 [23]): Active | Activity (4T1 [24]): Active | inhibition [25]: Active | AUC(0-t) [26]: 657 ng·h/mL | Tmax [27]: 43.2 min | Activity (4T1 [28]): Active
